Test results as given in patent US5536822A, “γ-phosphate linked adenosine 5' triphosphate sepharose” (University of Virginia Alumni Patents Foundation, priority 1994, dated 1996).

Tests used:
MAPKK = target: T1, MAPKK (Oryctolagus cuniculus, UniProt P29678); assay: Inhibition constant of the ATP derivative / Km for ATP, MAPKK assay; type: biochemical, rabbit
T1 construct: MAPKK, from rabbit skeletal muscle, was partially purified 600-fold; from tissue; host or cells: skeletal muscle (back and hind-limb) of a female New Zealand white rabbit
T1 sequence (P29678 whole entry): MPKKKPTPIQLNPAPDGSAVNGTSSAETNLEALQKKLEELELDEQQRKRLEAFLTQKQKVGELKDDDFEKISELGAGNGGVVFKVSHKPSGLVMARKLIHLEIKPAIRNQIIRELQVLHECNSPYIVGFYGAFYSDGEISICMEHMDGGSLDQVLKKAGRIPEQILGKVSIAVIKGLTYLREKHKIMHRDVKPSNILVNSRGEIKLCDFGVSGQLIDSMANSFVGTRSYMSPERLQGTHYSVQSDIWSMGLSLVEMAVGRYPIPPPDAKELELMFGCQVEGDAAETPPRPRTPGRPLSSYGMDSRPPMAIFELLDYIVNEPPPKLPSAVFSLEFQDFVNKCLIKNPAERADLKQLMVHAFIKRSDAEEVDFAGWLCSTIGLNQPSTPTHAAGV
Experimental: A fed female New Zealand white rabbit was euthanized by lethal injection with phenobarbital via the marginal ear vein. The back and hind-limb skeletal muscle (300 g) were rapidly excised, minced and homogenized at 4° C. with 2.5 vol. solution C (50 mM 2-glycerophosphate, pH 7.3, 1.5 mM EGTA, 0.15 μM sodium orthovanidate, 1 mM dithiothreitol, 1 mM phenylmethanesulfonyl fluoride, 1 mM benzamidine) containing 6 μg/ml leupeptin. All subsequent steps were carried out at 4° C. […] The DEAE was packed into a glass column (20 cm×50 cm) washed with solution C until the absorbance at […] of the eluate was <0.005 absorbance. […]
(§1) In order to assess the effectiveness of adenosine 5'-(γ-4-aminophenyl)triphosphate as an affinity ligand for protein kinases, the inhibition constants (Ki) of the derivative were determined for four different protein kinases, namely, p42^mapk, cyclic-A kinase, MAPKK and p60^c-arc (Table 1). […] This also facilitated comparisons for the relative binding constants determined with other ATP analogs (Flockhart et al. (1984) Eur. J. Biochem., 140:289-295; Hoppe et al. (1972) Eur. J. Biochem., 80:369-372; Taylor et al. (1990) Peptides and Protein Phosphorylation (Kemp et al.) pp 2-32, CRC Press).

p42^mapk = target: T2, p42^mapk (Mus musculus, UniProt P63085); assay: Inhibition constant of the ATP derivative / Km for ATP, p42^mapk assay; type: biochemical; settings: 20 μM ATP
T2 construct: made in house
T2 sequence (P63085 whole entry): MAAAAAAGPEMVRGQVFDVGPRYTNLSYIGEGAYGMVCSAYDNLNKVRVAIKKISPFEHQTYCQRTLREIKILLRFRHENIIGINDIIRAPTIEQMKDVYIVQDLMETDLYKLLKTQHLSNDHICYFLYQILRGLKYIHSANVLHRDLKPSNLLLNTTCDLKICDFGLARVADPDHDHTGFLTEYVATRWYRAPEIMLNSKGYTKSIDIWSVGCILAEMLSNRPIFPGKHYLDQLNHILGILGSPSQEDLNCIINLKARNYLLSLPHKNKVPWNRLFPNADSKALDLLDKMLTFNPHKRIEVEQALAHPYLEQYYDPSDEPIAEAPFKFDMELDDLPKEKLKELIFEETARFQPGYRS
Source text: (§2) [γ-^32 P] ATP was synthesized according to the procedure set forth in Johnson et al., Advances in Cyclic Nucleotide Research, 10:135-167 (1979). The catalytic subunit of cyclic-AMP-dependent protein kinase was purchased from Promega. p60^c-arc was obtained from the Department of Microbiology, University of Virginia. Recombinant p42^mapk was purified as described in Haystead et al., (1992) FEBS Lett., 306:17-22. STE7 antibody was obtained from the University of Vancouver, Canada.
(§3) The 42-kDa MAP kinase (p42^mapk) and MAPKK were assayed as described previously (Haystead et al. (1992) FEBS. Lett., 306:17-22). The cyclic-A kinase assays (30 μl) included 1 μg cyclic-A kinase, 2 mM Kemptide, 50 mM Hepes, pH 7.4, 1 mM dithiothreitol, 200 μM ATP, 5 mM MgCl2. […]
as §1

p60^c-src = target: T3, p60^c-src (Homo sapiens, UniProt P12931); assay: Inhibition constant of the ATP derivative / Km for ATP, p60^c-src assay (peptide substrate); type: biochemical; settings: 20 μM ATP
T3 construct: Department of Microbiology, University of Virginia (obtained from; not a purchase)
T3 sequence (P12931 whole entry): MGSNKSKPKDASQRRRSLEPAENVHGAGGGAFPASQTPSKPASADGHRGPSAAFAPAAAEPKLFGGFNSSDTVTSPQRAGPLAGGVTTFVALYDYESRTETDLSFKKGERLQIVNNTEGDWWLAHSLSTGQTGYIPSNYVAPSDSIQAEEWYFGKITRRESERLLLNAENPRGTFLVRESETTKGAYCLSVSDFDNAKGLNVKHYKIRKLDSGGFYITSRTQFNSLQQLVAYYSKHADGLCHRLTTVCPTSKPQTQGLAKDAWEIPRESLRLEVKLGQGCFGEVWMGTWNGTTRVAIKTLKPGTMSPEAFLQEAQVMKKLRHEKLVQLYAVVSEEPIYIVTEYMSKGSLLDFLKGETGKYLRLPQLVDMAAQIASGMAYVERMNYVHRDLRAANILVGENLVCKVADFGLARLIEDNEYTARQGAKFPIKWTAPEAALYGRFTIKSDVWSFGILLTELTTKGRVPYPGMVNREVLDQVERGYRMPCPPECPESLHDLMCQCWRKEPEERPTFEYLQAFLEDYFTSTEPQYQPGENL
Source text: as §2, §3, §1

[1] = test system: four different protein kinases, namely, p42^mapk, cyclic-A kinase, MAPKK and p60^c-arc; assay: Inhibition of four protein kinases by the ATP derivative (summary over all enzymes); type: biochemical
Experimental: The 42-kDa MAP kinase (p42^mapk) and MAPKK were assayed as described previously (Haystead et al. (1992) FEBS. Lett., 306:17-22). The cyclic-A kinase assays (30 μl) included 1 μg cyclic-A kinase, 2 mM Kemptide, 50 mM Hepes, pH 7.4, 1 mM dithiothreitol, 200 μM ATP, 5 mM MgCl2. Reactions were terminated by spotting 25 μl assay mixture onto P81 paper as described in Haystead et al. (1992) FEBS Lett., 306:17-22. p60^c-arc assays were similar, except a 2 mM peptide (Rossomando et al., 1992) Proc. Natl. Acad. Sci., 89:5221-5225) was used as the substrate.
In order to assess the effectiveness of adenosine 5'-(γ-4-aminophenyl)triphosphate as an affinity ligand for protein kinases, the inhibition constants (Ki) of the derivative were determined for four different protein kinases, namely, p42^mapk, cyclic-A kinase, MAPKK and p60^c-arc (Table 1). The Ki was determined in the presence of 20 μM ATP. However, since the Km for ATP varied for each protein kinase tested, for comparative purposes it was convenient to determine the Ki /Km quotient (Table 1). This also facilitated comparisons for the relative binding constants determined with other ATP analogs (Flockhart et al. (1984) Eur. J. Biochem., 140:289-295; Hoppe et al. (1972) Eur. J. Biochem., 80:369-372; Taylor et al. (1990) Peptides and Protein Phosphorylation (Kemp et al.) pp 2-32, CRC Press).

Cyclic A kinase = Cyclic A kinase (Bos taurus, UniProt P00517); assay: Inhibition constant of the ATP derivative / Km for ATP, cyclic-A kinase assay (Kemptide substrate)
[2] = [Mg^2+] reduced to levels equimolar with free ATP

Nc1ccc(OP(=O)(O)OP(=O)(O)OP(=O)(O)OC[C@H]2O[C@@H](n3cnc4c(N)ncnc43)[C@H](O)[C@@H]2O)cc1 [adenosine-5'-(γ-4-aminophenyl)triphosphate]
Ki (MAPKK): 176 ± 22.1 µM | Ki /Km (MAPKK; MAPKK, 20 μM ATP, Km for ATP): 15.20 | Ki /Km (p42^mapk; Km for ATP): 10.02 | Ki (p42^mapk; read-out: Ki ± SDM): 75.2 ± 8.2 µM | Ki /Km (p60^c-src; Km for ATP): 19.35 | Ki (p60^c-src; read-out: Ki ± SDM): 120 ± 13.6 µM | competition with ATP ([1]; 20 μM ATP): competes with ATP | Ki /Km quotient ([1]; 20 μM ATP, range over four enzymes): 10-20 | Ki ([1]; 20 μM ATP, range over four enzymes, read-out: apparent Ki values obtained against each enzyme): 75 to 180 µM | effect on the Ki /Km quotient of reduced [Mg^2+] [1, 2]: no effect | effect on the Ki of reduced [Mg^2+] [1, 2]: no effect | Ki (Cyclic A kinase): 104 ± 11.6 µM | Ki /Km (Cyclic A kinase; cyclic A kinase, 20 μM ATP, Km for ATP): 14.60
